This is an account of results in patent US12084460B2, “Crystalline forms of a TLR7/TLR8 inhibitor” (NOVARTIS AG, priority 2018, dated 2024).

In brackets after ≈: the same amount, converted by molar mass. Structures can show the parent of a compound that is named as a salt.

Holding throughout (type): physicochemical
Data set [1] is described as follows: Solubility. Here is the method: Form A is highly soluble at pH values of 4.7 and below (solubility higher than 2 mg/mL), however, at higher pH levels, formation of less soluble form HA leads to lower solubility values.
Data set [2] in a line: Hygroscopicity / behaviour under humidity (DVS). Conditions: for behaviour at high humidity: above 70% RH. From the text: Crystalline form A is an anhydrous form of (S)—N-(4-((5-(1,6-dimethyl-1H-pyrazolo[3,4-b]pyridin-4-yl)-3-methyl-4,5,6,7-tetrahydro-1H-pyrazolo[4,3-c]pyridin-1-yl)methyl)bicyclo[2.2.2]octan-1-yl)morpholine-3-carboxamide that is highly crystalline consisting of thin tabular particles.
Crystalline form HA is a hydrated form of (S)—N-(4-((5-(1,6-dimethyl-1H-pyrazolo[3,4-b]pyridin-4-yl)-3-methyl-4,5,6,7-tetrahydro-1H-pyrazolo[4,3-c]pyridin-1-yl)methyl)bicyclo[2.2.2]octan-1-yl)morpholine-3-carboxamide.

Data set [3] in a line: Behavior under compression (physical stability). Conditions: 100 mg compressed 5 minutes at 10 tons. Here is the method: Behavior under compression: The physical stability of each crystalline form (Form A or Form HA) was also evaluated.
100 mg of the crystalline form was compressed for 5 minutes at 10 tons with a hydraulic press (diameter of the tablets 8 mm). The sample was then characterized by XRPD to detect any change in the solid state.

The nature of data set [4]: Competitive solvent equilibration of form A and form HA. Conditions: 1:1 mixture of form A and form HA suspended in solvents, 25-50° C., seven days, XRPD/DVS. Here is the method:
Competitive equilibrations were carried out to investigate the relative stability of form A and HA in a competitive solvent equilibration. A 1:1 mixture of form A and form HA was prepared and suspended in various solvents or mixture thereof at temperature between 25° C. and 50° C. for seven days. The resulting suspension was filtered and analyzed by XRPD/DVS.

Data set [5] in a line: Stability under light exposure. Conditions: exposure to 1200 kLux at 25° C.
Data set [6] can be described thus: Granulation simulation / dry grinding experiment. Conditions: for form change under dry grinding: XRPD and/or DSC. Here is the method: Behavior under granulation simulation experiment: The physical stability of crystalline forms A and HA were also evaluated in granulation simulation experiments. In these experiments granulating solvent was added dropwise to the crystalline form A or HA until the solid is wetted sufficiently. The mixture was then vortexed between each addition at 25° C. Alternatively, dry grinding was carried out. The crystallinity of the material (post-grinding) was re-evaluated by XRPD and/or DSC.

Data set [7] in a line: Solid state stability in bulk and with excipient mixtures. The conditions noted are these: bulk: 1 week 80° C., 50° C., 80° C.-75% RH, 50° C.-75% RH; excipient mixtures EM1, EM2, HGC, HMPC: 2 weeks 50° C. with or without 75% RH; HPLC and XRPD. The procedure:
A stability and excipient compatibility study was performed on form A and form HA. Both forms were subject to various test conditions as described below: • Test conditions in bulk: 1 week in a tight container at 80° C., 50° C., 80° C.-75% RH or 50° C.-75% RH. • Test condition with excipient mixtures (EM) • a. 1% of form A or form HA in EM1 for 2 weeks at 50° C. • b. 1% of form A or form HA in EM2 for 2 weeks at 50° C. • c. 10% of form A or form HA in crushed hard gelatin capsule (HGC) for 2 weeks at 50° C. • d. 10% of form A or form HA in crushed Hydroxypropyl Methyl Cellulose (HMPC) for 2 weeks at 50° C. • e. 1% of form A or form HA in EM1 for 2 weeks at 50° C. and 75% RH • f. 1% of form A or form HA in EM2 for 2 weeks at 50° C. and 75% RH • g. 10% of form A or form HA in crushed HGC for 2 weeks at 50° C. and 75% RH • h. 10% of form A or form HA in crushed HMPC for 2 weeks at 50° C. and 75% RH • EM1: Excipient mixture 1: Lactose spray dried (53%), Microcrystalline Cellulose (MCC) PH102 (40%), Crospovidone XL (5%), Aerosil (0.5%), Magnesium stearate (1.5%) • EM2: Excipient mixture 2: Mannitol DC (68%), MCC PH102 (26%), Ac-Di-Sol (4%), Aerosil (0.5%), Magnesium stearate (1.5%)
The degradation products were analyzed by HPLC and the sample was analyzed by XPRD to detect any changes to the solid state.

A short description of data set [8]: Corrosivity assessment of salt form. From the text:
The criteria for selection are toxicological considerations, crystallinity, melting point, hygroscopicity, stability in bulk, compatibility with excipients, pH of aqueous solution, solubility in water and aqueous media, morphology, handling and polymorphic behavior.

Usually solubility stands for the concentration that dissolves in the medium under given conditions. For the compound `Cc1cc(N2CCc3c(c(C)nn3CC34CCC(NC(=O)[C@@H]5COCCN5)(CC3)CC4)C2)c2cnn(C)c2n1` [Form A, (S)—N-(4-((5-(1,6-dimethyl-1H-pyrazolo[3,4-b]pyridin-4-yl)-3-methyl-4,5,6,7-tetrahydro-1H-pyrazolo[4,3-c]pyridin-1-yl)methyl)bicyclo[2.2.2]octan-1-yl)morpholine-3-carboxamide], the solubility in data set [1] (pH 4.7, aqueous buffer, pH values of 4.7 and below) is > 2000 µg/mL. In data set [2] (listed as form A), the “behaviour at high humidity” value is reported as “transforms into the hydrate crystalline form HA”. Besides, in data set [2] (up to 70% RH), the hygroscopicity result was “slightly hygroscopic” and the moisture uptake is listed as 1.3%. Further, the “change of crystalline form under compression (XRPD)” value in data set [3] was “No change of crystalline form”. Further, in data set [4], the “water activity (aw) at which form A transforms into form HA” value was ~0.25. Also, the “physical and chemical stability under light exposure” value in data set [5] is “good physical and chemical stability”. The “form change under dry grinding” value in data set [6] (listed as Modification A) is reported as “stable”. For the same compound, in data set [6] (granulation with water), the “form change upon granulation” value is reported as “partially changed”. Besides, the “stability in bulk state and with excipients” value in data set [7] is “good stability”.

As for `Cc1cc(N2CCc3c(c(C)nn3CC34CCC(NC(=O)[C@@H]5COCCN5)(CC3)CC4)C2)c2cnn(C)c2n1` [Form HA, (S)—N-(4-((5-(1,6-dimethyl-1H-pyrazolo[3,4-b]pyridin-4-yl)-3-methyl-4,5,6,7-tetrahydro-1H-pyrazolo[4,3-c]pyridin-1-yl)methyl)bicyclo[2.2.2]octan-1-yl)morpholine-3-carboxamide], the solubility in data set [1] (aqueous buffers in bio-relevant media, aqueous buffer) is ~4 µg/mL (≈ 7.51 µM). In addition, the “behaviour at low humidity” value in data set [2] (below 20% RH, rehydrates to form HA at 30% RH) is recorded as “dehydrates to a non-characterized anhydrate form”. Moreover, in data set [2] (humidities above 30% RH), the hygroscopicity result is reported as “slightly hygroscopic”. In addition, in data set [6], the “form change under dry grinding” value is “no form change”. Also, the “form change upon granulation” value in data set [6] (ethanol and water as granulation solvent, 25° C., XRPD) is listed as “no form change”.

As for `Cc1cc(N2CCc3c(c(C)nn3CC34CCC(NC(=O)[C@@H]5COCCN5)(CC3)CC4)C2)c2cnn(C)c2n1` [HCl salt, (S)—N-(4-((5-(1,6-dimethyl-1H-pyrazolo[3,4-b]pyridin-4-yl)-3-methyl-4,5,6,7-tetrahydro-1H-pyrazolo[4,3-c]pyridin-1-yl)methyl)bicyclo[2.2.2]octan-1-yl)morpholine-3-carboxamide], the “behaviour at high humidity” value in data set [2] is recorded as “deliquescent”. The corrosivity entry in data set [8] is recorded as “potential corrosivity”.
